This passage reports MIC results from paper PMC11013252, “Exploration of the Antibacterial and Anti-Inflammatory Activity of a Novel Antimicrobial Peptide Brevinin-1BW” (Molecules, 2024).

Values after ≈ are worked out from the molar mass of the structure shown. Positions of bridges follow the written chain, without caps; N, C: chain ends. No end group written: not given here.

The subject of one experiment is MRSA/MDR S. aureus. The note with it: ref [44],[45],[46],[47]; cited from earlier work. The text has this:
Table 5 Comparison of MICs of Brevinin-1BW and related AMPs congeners against specific microorganisms. | column: MIC (µM) / MRSA/MDR S. aureus

The subject of a further experiment is S. aureus. The note with it: ref [44],[45],[46],[47]; cited from earlier work. An excerpt: Table 5 Comparison of MICs of Brevinin-1BW and related AMPs congeners against specific microorganisms. | column: MIC (µM) / S. aureus
For another experiment, the system named is E. faecalis. The note with it: ref [44],[45],[46],[47]; cited from earlier work. An excerpt:
Table 5 Comparison of MICs of Brevinin-1BW and related AMPs congeners against specific microorganisms. | column: MIC (µM) / E. faecalis

The test system of experiment [1] is S. epidermidis (CI 1607BL1D39). Kind of experiment: microbe, parasite or virus in culture. The note with it: Staphylococcus epidermidis; S. epidermidis (CI 1607BL1D39), clinical isolate; CLSI two-fold dilution, MH medium, 1 × 10^6 CFU/mL, 37 °C, 18 h, OD600; 9 replicates of 3 independent experiments; read-out: MIC. Format: cell-based, Staphylococcus epidermidis. The protocol: (§1) The minimum inhibitory concentration (MIC) of the Brevinin-1BW was measured in 96-well microtiter plates according to the Clinical and Laboratory Standards Institute (CLSI). The activated strains were treated with Mueller Hinton Agar (MHA) solid medium. Single colonies were picked and expanded to the logarithmic growth phase, and the solution was diluted to 2 × 10^6 CFU/mL using the McFarland turbidity standard. The MIC was determined with the two-fold dilution method. Briefly, 50 μL of Mueller Hinton (MH) medium was added to a 96-well plate in advance. Then, 50 μL of AMP solution was added to the first well, and 50 μL was pipetted into the next well after mixing using a row gun, while 50 μL was discarded from the last well. Final concentrations of Brevinin-1BW were 100, 50, 25, 12.5, 6.25, and 3.125 μg/mL. A 50 μL volume of the diluted bacterial solution was added, and the final concentration of the bacterial solution was 1 × 10^6 CFU/mL. This was then placed into a 37 °C incubator for 18 h until the next day to observe the degree of turbidity of the 96-well plate and measure the absorbance of the wells at 600 nm with a multifunctional microplate reader (SpectraMax iD5, Molecular Devices, Sunnyvale, CA, USA). The absence of turbidity and the measured concentration of absorbance being less than the opposing group was taken as the MIC. The positive control used ampicillin at the same final concentration as Brevinin-1BW, the negative control used 50 μL of MH medium mixed with 50 μL of 2 × 10^6 CFU/mL bacterial solution, and the blank contained only 100 μL of MH medium. Three replicate wells were set up for each experiment, and each experiment was repeated three times. The MIC and all concentrations above the MIC of bacterial solution coated on MHA solid medium were placed into 37 °C incubator incubation for 18 h. The lowest concentration resulting in no colony growth was taken as the minimum bactericidal concentration (MBC).

Experiment [2] deals with S. haemolyticus (CI 1607BLD590). Kind of experiment: microbe, parasite or virus in culture. In kind it is cell-based, Staphylococcus haemolyticus. The note with it: Staphylococcus haemolyticus; S. haemolyticus (CI 1607BLD590), clinical isolate; CLSI two-fold dilution, MH medium, 1 × 10^6 CFU/mL, 37 °C, 18 h, OD600; 9 replicates of 3 independent experiments; read-out: MIC. Here is the method: as §1

The subject of the next experiment is E. coli (ATCC25922). Kind of experiment: microbe, parasite or virus in culture. Format: cell-based. The note with it: Escherichia coli; E. coli (ATCC25922); CLSI two-fold dilution, MH medium, 1 × 10^6 CFU/mL, 37 °C, 18 h, OD600; 9 replicates of 3 independent experiments; read-out: MIC. Here is the method: as §1
In experiment [3] the test system is S. saprophytics (ATCCBAA750). Kind of experiment: microbe, parasite or virus in culture. Format: cell-based, Staphylococcus saprophyticus. The note with it: Staphylococcus saprophyticus; S. saprophytics (ATCCBAA750); CLSI two-fold dilution, MH medium, 1 × 10^6 CFU/mL, 37 °C, 18 h, OD600; 9 replicates of 3 independent experiments; read-out: MIC. Here is the method: as §1

Experiment [4] has as its system E. hormaechei (ATCC700323). The experiment is described as follows: microbe, parasite or virus in culture. Format: cell-based, Enterobacter hormaechei. The note with it: Enterobacter hormaechei; E. hormaechei (ATCC700323); CLSI two-fold dilution, MH medium, 1 × 10^6 CFU/mL, 37 °C, 18 h, OD600; 9 replicates of 3 independent experiments; read-out: MIC. The protocol: as §1

The subject of a further experiment is E. faecalis (ATCC29212). The experiment is described as follows: microbe, parasite or virus in culture. In kind it is cell-based, Enterococcus faecalis. The note with it: Enterococcus faecalis; E. faecalis (ATCC29212); CLSI two-fold dilution, MH medium, 1 × 10^6 CFU/mL, 37 °C, 18 h, OD600; 9 replicates of 3 independent experiments; read-out: MIC. Here is the method: as §1

Experiment [5] relates to C. koseri (CI 1611SED223). The experiment is described as follows: microbe, parasite or virus in culture. The note with it: Citrobacter koseri; C. koseri (CI 1611SED223), clinical isolate; CLSI two-fold dilution, MH medium, 1 × 10^6 CFU/mL, 37 °C, 18 h, OD600; 9 replicates of 3 independent experiments; read-out: MIC. Format: cell-based, Citrobacter koseri. Here is the method: as §1

The subject of another experiment is E. coli (MDR ATCC35218). The experiment is described as follows: microbe, parasite or virus in culture. In kind it is cell-based, Escherichia coli. The note with it: Escherichia coli; E. coli (MDR ATCC35218); CLSI two-fold dilution, MH medium, 1 × 10^6 CFU/mL, 37 °C, 18 h, OD600; 9 replicates of 3 independent experiments; read-out: MIC. The protocol: as §1
Experiment [6] deals with P. aeruginosa (ATCC27853). Kind of experiment: microbe, parasite or virus in culture. In kind it is cell-based, Pseudomonas aeruginosa. The note with it: Pseudomonas aeruginosa; P. aeruginosa (ATCC27853); CLSI two-fold dilution, MH medium, 1 × 10^6 CFU/mL, 37 °C, 18 h, OD600; 9 replicates of 3 independent experiments; read-out: MIC. The protocol: as §1
Experiment [7] has as its system K. pneumoniae (ATCC700603). The experiment is described as follows: microbe, parasite or virus in culture. Format: cell-based, Klebsiella pneumoniae. The note with it: Klebsiella pneumoniae; K. pneumoniae (ATCC700603); CLSI two-fold dilution, MH medium, 1 × 10^6 CFU/mL, 37 °C, 18 h, OD600; 9 replicates of 3 independent experiments; read-out: MIC. Here is the method:
as §1

The test system of experiment [8] is S. aureus (MDR ATCC29213). The experiment is described as follows: microbe, parasite or virus in culture. Format: cell-based, Staphylococcus aureus. The note with it: Staphylococcus aureus; S. aureus (MDR ATCC29213); CLSI two-fold dilution, MH medium, 1 × 10^6 CFU/mL, 37 °C, 18 h, OD600; 9 replicates of 3 independent experiments; read-out: MIC. Here is the method:
as §1

In the next experiment the test system is S. aureus (ATCC25923). Kind of experiment: microbe, parasite or virus in culture. Format: cell-based, Staphylococcus aureus. The note with it: Staphylococcus aureus; S. aureus (ATCC25923); CLSI two-fold dilution, MH medium, 1 × 10^6 CFU/mL, 37 °C, 18 h, OD600; 9 replicates of 3 independent experiments; read-out: MIC. Here is the method: as §1

On to “FLPAVLRVAAKVVPTVFCLISKKC (disulfide 18-24 (inferred)) [Brevinin-1JDc, related Brevinin-1 family AMP from publications]”, for which the MIC is on record as 3 µM with MRSA/MDR S. aureus and 6 µM in the experiment on S. aureus.
In the case of “FLPGVLRLVTKVGPAVVCAITRNC (disulfide 18-24 (inferred)) [Brevinin-1ISa, related Brevinin-1 family AMP from publications]”, the MIC with MRSA/MDR S. aureus and in the experiment on S. aureus was 3.1 µM each time.
On to “FLPAVIRVAANVLPTVFCAISKKC (disulfide 18-24 (inferred)) [Brevinin-1JDa, related Brevinin-1 family AMP from publications]”, for which the MIC in the experiment on MRSA/MDR S. aureus is listed as 13 µM; with S. aureus, 6 µM.
As for “FLGSIVGALASALPSLISKIRN [Brevinin1TSa, related Brevinin-1 family AMP from publications]”, the MIC in the experiment with MRSA/MDR S. aureus is 25 µM; in the experiment on E. faecalis, 50 µM; with S. aureus, 25 µM.
On to “FLGAVLKVAGKLVPAAICKISKKC (disulfide 18-24 (inferred)) [Brevinin-1GHa, related Brevinin-1 family AMP from publications]”, for which the MIC is on record as 4 µM with MRSA/MDR S. aureus, 8 µM with E. faecalis and 2 µM in the experiment on S. aureus.
As to “FLGALFKVASKLVPAAICSISKKC (disulfide 18-24 (inferred)) [Brevinin-1GHd, related Brevinin-1 family AMP from publications]”, the values for the MIC with MRSA/MDR S. aureus and in the experiment with S. aureus were 4 µM and 2 µM, respectively.
Turning to `CC1(C)S[C@@H]2[C@H](NC(=O)[C@H](N)c3ccccc3)C(=O)N2[C@H]1C(=O)O` [Ampicillin, reference compound], the MIC in experiment [1] is 3.12 µg/mL (≈ 8.94 µM); in [2] it was over 100 µg/mL; in the experiment with E. coli (ATCC25922) it was 100 µg/mL (≈ 286 µM); in experiment [3], 3.12 µg/mL (≈ 8.94 µM); in experiment [4] it was over 100 µg/mL; with E. faecalis (ATCC29212) it was 3.12 µg/mL (≈ 8.94 µM). Besides, the MIC was over 100 µg/mL in [5]; over 100 µg/mL in the experiment with E. coli (MDR ATCC35218); over 100 µg/mL in [6]; over 100 µg/mL in [7]; over 100 µg/mL in [8]; 3.12 µg/mL (≈ 8.94 µM) in the experiment with S. aureus (ATCC25923).
